# Results published in patent US10588280B2, “Aided delivery of plant treatment agents” (Monsanto Technology LLC, priority 2014, dated 2020).
# Tested on: haploid corn seedlings (SAM)
# Experiment: Example 2: single submerged centrifugation in colchicine, survival and doubling success
# Type: in vivo
# Conditions: for DE / Fert. Success / Initial Survival / Poll. Success: single submerged spin 50 g 10 min
# Description: Seeds of 5 different F1 hybrid-derived haploid commercial corn lines were randomly-selected and germinated in a greenhouse. The resulting seedlings were removed from soil or growth media at the V1-V2 growth stage and the soil or growth media rinsed from the plants with water. One sample of several random seedlings within each haploid line was placed in a centrifuge sample container without regard to how the shoot-root axis of the plants would be orientated with respect to the force of acceleration generated during the planned centrifugation. Next, a plant treatment solution comprising 1000 ppm colchicine was poured into the container such that the solution submerged each plants SAM, and then the sample centrifuged at 50 g for 10 min with the SAMs submerged in the plant treatment agent.
# Following centrifugation, the plants were removed, rinsed with water to remove any remaining colchicine solution, and then recovered and tended in a light, humidity, and temperature-controlled greenhouse for several days before being transplanted to a nursery greenhouse.
# The control sample received no centrifugation or colchicine exposure, but was otherwise handled identically as the treatment sample. During the subsequent growth of the plants, the initial survival, pollination success, fertilization success, and doubling efficiency (DE) were determined within each sample.
# [1] = Ave: of five lines, 1000 ppm colchicine
# [2] = centrifuged samples, 1000 ppm colchicine, submerged 50 g 10 min, vs untreated controls
# [3] = line F1004, 1000 ppm colchicine
# [4] = line F1045, 1000 ppm colchicine
# [5] = line F1095, 1000 ppm colchicine
# [6] = line F1118, 1000 ppm colchicine
# [7] = line F1900, 1000 ppm colchicine
structure (smiles),measurement,setting,value
COc1cc2c(c(OC)c1OC)-c1ccc(OC)c(=O)cc1[C@@H](NC(C)=O)CC2 [colchicine],DE,[1],30%
same,Fert. Success,[1],84%
same,Initial Survival,[1],77%
same,Poll. Success,[1],47%
same,drop in initial survival as compared to controls,[2],15%
same,improvement of overall average DE as compared to controls,[2],25%
same,DE,[3],50%
same,Fert. Success,[3],100%
same,Initial Survival,[3],100%
same,Poll. Success,[3],50%
same,DE,[4],25%
same,Fert. Success,[4],100%
same,Initial Survival,[4],58%
same,Poll. Success,[4],43%
same,DE,[5],47%
same,Fert. Success,[5],78%
same,Initial Survival,[5],87%
same,Poll. Success,[5],69%
same,DE,[6],10%
same,Fert. Success,[6],100%
same,Initial Survival,[6],40%
same,Poll. Success,[6],25%
same,DE,[7],10%
same,Fert. Success,[7],40%
same,Initial Survival,[7],100%
same,Poll. Success,[7],50%
same,individuals that produced pollen and silks,minimum over all five inbred samples receiving the experimental treatment,at least 25%
